Assay results: patent US7851632B2, “Biphenyl compounds useful as muscarinic receptor antagonists” (Theravance, Inc., priority 2004, dated 2010)

Test system: ACh-induced bronchoconstriction
Test: Duration of bronchoprotection in guinea pig model of acetylcholine-induced bronchoconstriction
Assay type: in vivo
Details: inhalation, 1.5 hours post-dose
Protocol: Determination of Duration of Bronchoprotection in Guinea Pig Model of Acetylcholine-Induced Bronchoconstriction
Groups of six male guinea pigs (Duncan-Hartley (HsdPoc:DH) Harlan, Madison, Wis.) weighing between 250 and 350 g were individually identified by cage cards. Throughout the study animals were allowed access to food and water ad libitum.
Test compounds were administered via inhalation over 10 minutes in a whole-body exposure dosing chamber (R&S Molds, San Carlos, Calif.). The dosing chambers were arranged so that an aerosol was simultaneously delivered to 6 individual chambers from a central manifold. Guinea pigs were exposed to an aerosol of a test compound or vehicle (WFI). […] This was measured gravimetrically by comparing pre- and post-nebulization weights of the filled nebulizer.
The bronchoprotective effects of test compounds administered via inhalation were evaluated using whole body plethysmography at 1.5, 24, 48 and 72 hours post-dose.
Forty-five minutes prior to the start of the pulmonary evaluation, each guinea pig was anesthetized with an intramuscular injection of ketamine (43.75 mg/kg), xylazine (3.50 mg/kg) and acepromazine (1.05 mg/kg). […] The depth of anesthesia was monitored and adjusted if the animal responded to pinching of its paw or if the respiration rate was greater than 100 breaths/minute. […]

CN(CCN1CCC(OC(=O)Nc2ccccc2-c2ccccc2)CC1)C(=O)c1ccc(CNCc2ccc(O)cc2)cc1 [Example 1, Biphenyl-2-ylcarbamic Acid 1-[2-({4-[(4-Hydroxybenzylamino)methyl]benzoyl}methylamino)ethyl]piperidin-4-yl Ester]
PD2(50) for ACh-induced bronchoconstriction: less than 200 μg/mL
